In patent US11420973B2, “Amide substituted indole compounds useful as TLR inhibitors” (BRISTOL-MYERS SQUIBB COMPANY, priority 2017, dated 2022):
pIC50: −log10 of the molar value.

Legend:
[1] = target: human TLR7 (Homo sapiens (Human), UniProt Q9NYK1); assay: TLR7 inhibition reporter assay (HEK-Blue SEAP reporter, gardiquimod stimulation); type: cell-based; conditions: HEK-Blue cells overexpressing human TLR7, gardiquimod 7.5 μM
Procedure: HEK-Blue™-cells (Invivogen) overexpressing human TLR7, TLR8 or TLR9 receptors were used for screening inhibitors of these receptors using an inducible SEAP (secreted embryonic alkaline phosphatase) reporter gene under the control of the IFN-β minimal promoter fused to five NF-κB and AP-1-binding sites. Briefly, cells are seeded into Greiner 384 well plates (15000 cells per well for TLR7, 20,000 for TLR8 and 25,000 for TLR9) and then treated with test compounds in DMSO to yield a final dose response concentration range of 0.05 nM-50 μM. After a 30 minute compound pre-treatment at room temperature, the cells are then stimulated with a TLR7 ligand (gardiquimod at a final concentration of 7.5 μM), TLR8 ligand (R848 at a final concentration of 15.9 μM) or TLR9 ligand (ODN2006 at a final concentration of 5 nM) to activate NF-κB and AP-1 which induce the production of SEAP. After a 22 hour incubation at 37° C., 5% CO2, SEAP levels are determined with the addition of HEK-Blue™ Detection reagent (Invivogen), a cell culture medium that allows for detection of SEAP, according to manufacturer's specifications.

[2] = target: human TLR8 (Homo sapiens (Human), UniProt Q9NR97); assay: TLR8 inhibition reporter assay (HEK-Blue SEAP reporter, R848 stimulation); conditions: read-out: TLR8 IC50; HEK-Blue cells overexpressing human TLR8, R848 15.9 μM, SEAP reporter;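 note: SEAP driven by IFN-β minimal promoter with NF-κB and AP-1 sites, 22 h incubation, compounds 0.05 nM–50 µM, inhibition scaled between agonist plus DMSO and reference inhibitor wells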
[3] = target: human TLR9 (Homo sapiens (Human), UniProt Q9NR96); assay: TLR9 inhibition reporter assay (HEK-Blue SEAP reporter, ODN2006 stimulation); conditions: read-out: TLR9 IC50; HEK-Blue cells overexpressing human TLR9, ODN2006 5 nM, SEAP reporter;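 note: SEAP reporter under IFN-β minimal promoter with five NF-κB and AP-1 sites, 22 h incubation, compounds 0.05 nM–50 µM, inhibition relative to agonist plus DMSO versus known inhibitor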
Sequence of human TLR9 (Q9NR96 26-1032): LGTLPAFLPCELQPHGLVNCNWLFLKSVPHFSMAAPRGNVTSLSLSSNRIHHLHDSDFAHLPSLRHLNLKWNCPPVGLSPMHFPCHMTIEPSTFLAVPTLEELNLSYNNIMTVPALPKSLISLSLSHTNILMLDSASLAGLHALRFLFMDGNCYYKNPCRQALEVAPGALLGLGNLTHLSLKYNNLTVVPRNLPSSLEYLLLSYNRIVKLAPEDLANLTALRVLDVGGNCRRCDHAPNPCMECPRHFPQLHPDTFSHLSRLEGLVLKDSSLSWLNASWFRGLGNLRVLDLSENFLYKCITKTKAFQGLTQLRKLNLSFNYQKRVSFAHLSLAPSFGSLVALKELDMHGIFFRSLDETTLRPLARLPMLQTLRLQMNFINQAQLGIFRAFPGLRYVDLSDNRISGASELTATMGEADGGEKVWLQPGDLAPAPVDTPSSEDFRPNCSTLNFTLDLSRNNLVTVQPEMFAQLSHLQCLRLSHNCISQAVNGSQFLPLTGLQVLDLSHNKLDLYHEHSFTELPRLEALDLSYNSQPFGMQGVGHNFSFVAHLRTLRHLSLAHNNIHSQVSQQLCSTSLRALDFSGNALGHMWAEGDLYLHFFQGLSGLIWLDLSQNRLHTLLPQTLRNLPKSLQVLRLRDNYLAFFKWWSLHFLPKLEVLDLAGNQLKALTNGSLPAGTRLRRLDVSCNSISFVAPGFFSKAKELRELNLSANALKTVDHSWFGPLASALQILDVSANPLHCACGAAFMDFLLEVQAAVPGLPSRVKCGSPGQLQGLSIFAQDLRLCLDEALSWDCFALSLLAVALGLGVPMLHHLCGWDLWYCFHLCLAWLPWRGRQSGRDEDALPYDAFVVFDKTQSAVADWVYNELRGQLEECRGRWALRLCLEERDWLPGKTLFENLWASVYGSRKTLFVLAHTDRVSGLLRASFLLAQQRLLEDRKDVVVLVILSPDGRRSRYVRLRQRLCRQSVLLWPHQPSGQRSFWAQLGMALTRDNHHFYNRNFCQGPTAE

Sequence of human TLR7 (Q9NYK1 27-1049): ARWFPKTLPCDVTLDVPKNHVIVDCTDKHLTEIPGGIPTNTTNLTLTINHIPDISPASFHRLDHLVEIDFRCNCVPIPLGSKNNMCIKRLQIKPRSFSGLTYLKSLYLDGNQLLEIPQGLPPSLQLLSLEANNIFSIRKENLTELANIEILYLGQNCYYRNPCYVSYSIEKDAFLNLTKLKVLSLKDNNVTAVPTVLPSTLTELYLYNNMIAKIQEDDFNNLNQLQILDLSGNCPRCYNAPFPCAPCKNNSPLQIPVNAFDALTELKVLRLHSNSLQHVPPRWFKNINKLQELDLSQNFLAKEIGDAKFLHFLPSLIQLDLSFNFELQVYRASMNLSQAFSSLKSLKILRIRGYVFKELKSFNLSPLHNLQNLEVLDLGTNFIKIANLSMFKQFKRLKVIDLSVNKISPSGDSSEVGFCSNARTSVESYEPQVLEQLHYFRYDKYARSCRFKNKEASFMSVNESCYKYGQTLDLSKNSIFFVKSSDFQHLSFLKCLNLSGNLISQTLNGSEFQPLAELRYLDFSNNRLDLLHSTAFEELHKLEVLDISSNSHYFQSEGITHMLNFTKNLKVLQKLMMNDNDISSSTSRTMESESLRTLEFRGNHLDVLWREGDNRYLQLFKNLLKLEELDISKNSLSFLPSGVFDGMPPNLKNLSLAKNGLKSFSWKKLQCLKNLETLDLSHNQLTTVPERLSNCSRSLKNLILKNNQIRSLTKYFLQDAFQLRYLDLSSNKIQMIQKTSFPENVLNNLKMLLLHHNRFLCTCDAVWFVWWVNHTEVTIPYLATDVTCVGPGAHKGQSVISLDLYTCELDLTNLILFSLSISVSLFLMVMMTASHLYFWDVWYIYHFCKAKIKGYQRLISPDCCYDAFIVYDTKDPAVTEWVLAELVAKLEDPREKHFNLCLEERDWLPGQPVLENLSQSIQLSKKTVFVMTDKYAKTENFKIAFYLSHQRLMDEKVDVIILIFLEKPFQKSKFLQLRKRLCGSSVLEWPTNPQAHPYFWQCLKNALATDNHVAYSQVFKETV
Sequence of human TLR8 (Q9NR97 27-1041): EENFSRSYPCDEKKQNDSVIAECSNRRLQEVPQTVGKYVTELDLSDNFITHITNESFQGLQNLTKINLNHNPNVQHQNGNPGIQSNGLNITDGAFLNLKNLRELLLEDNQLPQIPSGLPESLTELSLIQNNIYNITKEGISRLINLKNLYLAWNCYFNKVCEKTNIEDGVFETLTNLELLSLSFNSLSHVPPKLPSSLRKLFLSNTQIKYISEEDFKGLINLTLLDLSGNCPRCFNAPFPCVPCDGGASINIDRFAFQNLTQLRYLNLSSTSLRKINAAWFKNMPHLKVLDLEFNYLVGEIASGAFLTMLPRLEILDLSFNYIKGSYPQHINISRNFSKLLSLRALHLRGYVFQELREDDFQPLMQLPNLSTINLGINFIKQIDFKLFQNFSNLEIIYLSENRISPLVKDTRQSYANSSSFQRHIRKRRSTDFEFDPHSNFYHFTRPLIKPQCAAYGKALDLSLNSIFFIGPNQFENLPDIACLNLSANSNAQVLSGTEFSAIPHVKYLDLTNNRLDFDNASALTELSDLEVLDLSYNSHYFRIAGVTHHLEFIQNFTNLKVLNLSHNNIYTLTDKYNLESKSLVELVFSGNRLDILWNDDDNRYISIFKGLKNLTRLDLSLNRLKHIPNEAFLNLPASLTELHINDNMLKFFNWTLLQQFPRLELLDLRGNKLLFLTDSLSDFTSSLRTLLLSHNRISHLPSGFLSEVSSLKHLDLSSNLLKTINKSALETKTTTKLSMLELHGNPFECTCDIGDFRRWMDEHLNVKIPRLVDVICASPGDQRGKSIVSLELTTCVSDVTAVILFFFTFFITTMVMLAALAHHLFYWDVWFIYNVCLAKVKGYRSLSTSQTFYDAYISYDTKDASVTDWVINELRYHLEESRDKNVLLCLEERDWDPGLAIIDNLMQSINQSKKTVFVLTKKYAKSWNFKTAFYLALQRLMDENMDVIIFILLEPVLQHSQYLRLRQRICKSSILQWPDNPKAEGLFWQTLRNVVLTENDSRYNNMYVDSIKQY

pIC50 [1]	pIC50 [2]	pIC50 [3]	Structure (SMILES)
6.96	7.49	6.08	COc1ccc(-c2[nH]c3ccc(CCC(=O)N4CC5CNCC5C4)cc3c2C(C)C)cc1OC (stereo not drawn) [Example 137, 3-(2-(3,4-dimethoxyphenyl)-3-isopropyl-1H-indol-5-yl)-1-(hexahydropyrrolo[3,4-c]pyrrol-2(1H)-yl)propan-1-one]
7.40	7.49	5.92	Cc1cc(-c2[nH]c3ccc(C(C)(C)C(=O)N[C@@H]4CCCNC4)cc3c2C(C)C)ccn1 [Example 140, (R)-2-(3-isopropyl-2-(2-methylpyridin-4-yl)-1H-indol-5-yl)-2-methyl-N-(piperidin-3-yl)propanamide]
7.46	6.83	6.25	Cc1cc(-c2[nH]c3ccc(C(C)(C)C(=O)NC4CCNCC4)cc3c2C(C)C)ccn1 [Example 143, 2-(3-isopropyl-2-(2-methylpyridin-4-yl)-1H-indol-5-yl)-2-methyl-N-(piperidin-4-yl)propanamide]
6.74	6.74	5.28	COc1ccc(-c2[nH]c3ccc(C(=O)N4CC5CN(CC(=O)N(C)C)CC5C4)cc3c2C(C)C)cc1OC (stereo not drawn) [Example 6, 2-{5-[2-(3,4-dimethoxyphenyl)-3-(propan-2-yl)-1H-indole-5-carbonyl]-octahydropyrrolo [3,4-c]pyrrol-2-yl}-N,N-dimethylacetamide]
5.75	6.24	4.50	CCc1c(-c2ccc(OC)c(OC)c2)[nH]c2ccc(C(=O)N(C)CCc3ccccn3)cc12 [Example 24, 2-(3,4-dimethoxyphenyl)-3-ethyl-N-methyl-N-(2-(pyridin-2-yl)ethyl)-1H-indole-5-carboxamide]
5.79	6.36	< 4.30	CCc1c(-c2ccc(OC)c(OC)c2)[nH]c2ccc(C(=O)NCCC(C)(C)NS(C)(=O)=O)cc12 [Example 71, 2-(3,4-dimethoxyphenyl)-3-ethyl-N-(3-methyl-3-(methylsulfonamido)butyl)-1H-indole-5-carboxamide]
6.48	6.21	5.60	Cc1cc(-c2[nH]c3ccc(C(C)(C)C(=O)NCC4CCNCC4)cc3c2C(C)C)ccn1 [Example 164, 2-(3-isopropyl-2-(2-methylpyridin-4-yl)-1H-indol-5-yl)-2-methyl-N-(piperidin-4-ylmethyl)propanamide]
7.00	7.27	6.37	COc1ccc(-c2[nH]c3ccc(C(=O)N4CC5CN(C6CCN(C)CC6)CC5C4)cc3c2C(C)C)cc1OC (stereo not drawn) [Example 15, (2-(3,4-dimethoxyphenyl)-3-isopropyl-1H-indol-5-yl)(5-(1-methylpiperidin-4-yl)hexahydropyrrolo[3,4-c]pyrrol-2(1H)-yl)methanone]
7.31	8.68	5.60	CCc1c(-c2ccnc(C)c2)[nH]c2ccc(C(=O)N(CC)CCN(C)C)cc12 [Example 84, N-(2-(dimethylamino)ethyl)-N,3-diethyl-2-(2-methylpyridin-4-yl)-1H-indole-5-carboxamide]
6.73	6.38	5.30	Cc1cc(-c2[nH]c3ccc(C(=O)N(C)CCc4ccccc4)cc3c2C(C)C)cc(C)n1 [Example 102, 2-(2,6-dimethylpyridin-4-yl)-3-isopropyl-N-methyl-N-phenethyl-1H-indole-5-carboxamide]
7.20	6.96	5.96	Cc1cc(-c2[nH]c3ccc(C(C)(C)C(=O)NCCN)cc3c2C(C)C)ccn1 [Example 134, N-(2-aminoethyl)-2-(3-isopropyl-2-(2-methylpyridin-4-yl)-1H-indol-5-yl)-2-methylpropanamide]
6.76	6.81	6.40	Cc1cc(-c2[nH]c3ccc(C(C)C(=O)N(C)C4CCNCC4)cc3c2C(C)C)ccn1 (stereo not drawn) [Example 207, 2-(3-isopropyl-2-(2-methylpyridin-4-yl)-1H-indol-5-yl)-N-methyl-N-(piperidin-4-yl)propanamide]
7.14	6.76	5.15	Cc1cc(-c2[nH]c3ccc(C(C)(C)C(=O)N4CCC(CN)C4)cc3c2C(C)C)ccn1 (stereo not drawn) [Example 151, 1-(3-(aminomethyl)pyrrolidin-1-yl)-2-(3-isopropyl-2-(2-methylpyridin-4-yl)-1H-indol-5-yl)-2-methylpropan-1-one]
7.77	6.56	5.52	Cc1cc(-c2[nH]c3ccc(C(C)(C)C(=O)N4CC5CN(C)CC5C4)cc3c2C(C)C)ccn1 (stereo not drawn) [Example 149, 2-(3-isopropyl-2-(2-methylpyridin-4-yl)-1H-indol-5-yl)-2-methyl-1-(5-methylhexahydropyrrolo[3,4-c]pyrrol-2(1H)-yl)propan-1-one]
7.10	6.30	5.52	Cc1cc(-c2[nH]c3ccc(C(C)(C)C(=O)N4CCC(CN)CC4)cc3c2C(C)C)ccn1 [Example 158, 1-(4-(aminomethyl)piperidin-1-yl)-2-(3-isopropyl-2-(2-methylpyridin-4-yl)-1H-indol-5-yl)-2-methylpropan-1-one]
5.89	5.66	4.78	CCc1c(-c2ccc(OC)c(OC)c2)[nH]c2ccc(C(=O)N3CCCN(c4ncccn4)CC3)cc12 [Example 64, (2-(3,4-dimethoxyphenyl)-3-ethyl-1H-indol-5-yl)(4-(pyrimidin-2-yl)-1,4-diazepan-1-yl)methanone]
6.12	7.82	5.01	CCc1c(-c2ccc(OC)c(OC)c2)[nH]c2ccc(C(=O)N3CCN(CCN4CCOCC4)CC3)cc12 [Example 42, (2-(3,4-dimethoxyphenyl)-3-ethyl-1H-indol-5-yl)(4-(2-morpholinoethyl)piperazin-1-yl)methanone]
6.86	7.74	6.07	Cc1cc(-c2[nH]c3ccc(C(C)(C)C(=O)NCC4CCCCN4)cc3c2C(C)C)ccn1 (stereo not drawn) [Example 159, 2-(3-isopropyl-2-(2-methylpyridin-4-yl)-1H-indol-5-yl)-2-methyl-N-(piperidin-2-ylmethyl)propanamide]
6.29	6.35	4.66	CCc1c(-c2ccc(OC)c(OC)c2)[nH]c2ccc(C(=O)N3CC4CN(CC(=O)NC)CC4C3)cc12 (stereo not drawn) [Example 82, 2-(5-(2-(3,4-dimethoxyphenyl)-3-ethyl-1H-indole-5-carbonyl)hexahydropyrrolo[3,4-c]pyrrol-2(1H)-yl)-N-methylacetamide]
6.80	6.91	6.01	Cc1cc(-c2[nH]c3ccc(C(C)(C)C(=O)NC4CCC5CNCC54)cc3c2C(C)C)ccn1 (stereo not drawn) [Example 146, 2-(3-isopropyl-2-(2-methylpyridin-4-yl)-1H-indol-5-yl)-2-methyl-N-(octahydrocyclopenta[c]pyrrol-4-yl)propanamide]
5.39	6.78	4.64	CNC(=O)CN1CC2CN(C(=O)c3ccc4[nH]c(-c5ccnc(C)c5)c(C(C)C)c4c3)CC2C1 (stereo not drawn) [Example 118, 2-(5-(3-isopropyl-2-(2-methylpyridin-4-yl)-1H-indole-5-carbonyl)hexahydropyrrolo[3,4-c]pyrrol-2(1H)-yl)-N-methylacetamide]
5.87	6.66	< 4.30	CCc1c(-c2ccc(OC)c(OC)c2)[nH]c2ccc(C(=O)N3CCC[C@H]3CO)cc12 [Example 28, (S)-(2-(3,4-dimethoxyphenyl)-3-ethyl-1H-indol-5-yl)(2-(hydroxymethyl)pyrrolidin-1-yl)methanone]
6.62	6.17	5.73	Cc1cc(-c2[nH]c3ccc(C(C)(C)C(=O)NCC4CCCNC4)cc3c2C(C)C)ccn1 (stereo not drawn) [Example 163, 2-(3-isopropyl-2-(2-methylpyridin-4-yl)-1H-indol-5-yl)-2-methyl-N-(piperidin-3-ylmethyl)propanamide]
7.02	7.36	5.57	Cc1cc(-c2[nH]c3ccc(C(C)(C)C(=O)NC4CCCC(N)C4)cc3c2C(C)C)ccn1 (stereo not drawn) [Example 168, N-(3-aminocyclohexyl)-2-(3-isopropyl-2-(2-methylpyridin-4-yl)-1H-indol-5-yl)-2-methylpropanamide]
7.25	8.41	5.31	CCc1c(-c2ccc(OC)c(OC)c2)[nH]c2ccc(C(=O)N(C)CCN(C)C)cc12 [Example 76, 2-(3,4-dimethoxyphenyl)-N-(2-(dimethylamino)ethyl)-3-ethyl-N-methyl-1H-indole-5-carboxamide]
7.35	7.52	< 4.30	CNC(=O)c1ccc2[nH]c(-c3cc(C)nc(C)c3)c(C(C)C)c2c1 [Example 97, 2-(2,6-dimethylpyridin-4-1)-3-isopropyl-N-methyl-1H-indole-5-carboxamide]
5.40	5.93	< 4.30	CCc1c(-c2ccc(OC)c(OC)c2)[nH]c2ccc(C(=O)N3CCc4ccccc43)cc12 [Example 66, (2-(3,4-dimethoxyphenyl)-3-ethyl-1H-indol-5-yl)(indolin-1-yl)methanone]

Structure (SMILES)	pIC50 [1]	pIC50 [2]	pIC50 [3]
Cc1cc(-c2[nH]c3ccc(C(C)(C)C(=O)N4CC5CC(C4)C5N)cc3c2C(C)C)ccn1 (stereo not drawn) [Example 148, 1-(6-amino-3-azabicyclo[3.1.1]heptan-3-yl)-2-(3-isopropyl-2-(2-methylpyridin-4-yl)-1H-indol-5-yl)-2-methylpropan-1-one]	7.06	7.10	5.58
